The values that follow come from ChEMBL document CHEMBL1139698, “Potent, selective pyrimidinetrione-based inhibitors of MMP-13” (Bioorg Med Chem Lett, 2006).

For data set [1], the species on record is Homo sapiens. Put plainly: Selectivity for MMP13 over MMP2.
The species named for data set [2] is Homo sapiens. Put plainly: Selectivity for MMP13 over MMP8.
The species named for data set [3] is Homo sapiens. Put plainly: Selectivity for MMP13 over MMP12.
Data set [4] deals with T1, Collagenase 3 (Homo sapiens, UniProt P45452). Put plainly: Inhibition of MMP13 in hamster synovial fluid. The conditions noted are these: Cricetulus griseus.
Data set [5] can be described thus: Plasma clearance in rat. The class given is ADME, organism-based.
The nature of data set [6]: Volume of distribution in rat. It counts as ADME, organism-based. To be noted: in vivo, read-out: Vdss.
Data set [7] in a line: Half life in rat. To be noted: in vivo. It counts as ADME, organism-based.
For the next data set, the system named is Cartilage tissue. Put plainly: Inhibition of bovine nasal cartilage degradation. It counts as functional, tissue-based. To be noted: Bos taurus.
For data set [8], the target named is Matrix metalloproteinase (1 and 13) (Homo sapiens) (UniProt P45452+P03956). Put plainly: Selectivity for MMP13 over MMP1. The class given is protein assay.
Sequence of Matrix metalloproteinase (1 and 13) (Homo sapiens) (P03956 whole entry, looked up, other chains not shown): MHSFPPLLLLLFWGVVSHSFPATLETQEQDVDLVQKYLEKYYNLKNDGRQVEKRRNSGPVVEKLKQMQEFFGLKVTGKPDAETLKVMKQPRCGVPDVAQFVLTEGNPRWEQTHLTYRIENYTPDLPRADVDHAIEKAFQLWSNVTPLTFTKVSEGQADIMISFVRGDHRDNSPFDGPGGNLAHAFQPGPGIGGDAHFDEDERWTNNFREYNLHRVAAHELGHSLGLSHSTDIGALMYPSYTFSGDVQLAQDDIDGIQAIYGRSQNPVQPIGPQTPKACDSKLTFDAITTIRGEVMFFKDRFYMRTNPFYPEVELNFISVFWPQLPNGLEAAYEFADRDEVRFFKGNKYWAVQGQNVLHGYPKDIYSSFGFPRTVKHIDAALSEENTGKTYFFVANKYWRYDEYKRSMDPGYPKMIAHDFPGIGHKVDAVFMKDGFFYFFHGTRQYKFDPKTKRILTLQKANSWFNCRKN
Data set [9] is filed under the species Homo sapiens. Put plainly: Selectivity for MMP13 over MMP3.
For data set [10], the species on record is Homo sapiens. Put plainly: Selectivity for MMP13 over MMP9.
Data set [11] is filed under the species Homo sapiens. Put plainly: Selectivity for MMP13 over MMP14.
Data set [12] has as its target Collagenase 3 (Rattus norvegicus, UniProt P23097). Put plainly: Inhibition of MMP13 in rat plasma. The class given is cell-free.
Data set [13] in a line: Plasma protein binding in rat. It counts as ADME, cell-free. To be noted: read-out: PPB.
The target in data set [14] is T1, Collagenase 3.

By ED50 is commonly meant the midpoint of the dose-response relation. Higher therefore signals a need for a large dose. The term clearance denotes a measure of how efficiently the substance is removed, as volume per time. Read a low clearance as inefficient removal. Usually half-life stands for the time needed for the level to fall by half in the phase considered. A high value points to slow decline. Broadly, the IC50 is the concentration needed to halve the response being measured.

`COCCC1(Oc2ccc(Oc3ccc(-c4nc(-c5ccc(C#N)cc5)co4)cc3)cc2)C(=O)NC(=O)NC1=O`: the Selectivity ratio in the data set filed under Homo sapiens [1] came out at 397; in the data set listed under Homo sapiens [2], 394; in the data set listed under Homo sapiens [3] it was 619; in data set [8], 2400; in the data set listed under Homo sapiens [9], 1700; in the data set filed under Homo sapiens [10], 540. The Selectivity ratio in the data set listed under Homo sapiens [11] was 540. Also, the 50% effect level on Collagenase 3 [4] (ED50) was put at a dose of 1 mg/kg. This compound displayed a clearance in data set [5] of 0.0378 L/h/kg. Further, the Vd in [6] is 0.34 L/kg. This compound gave a half-life in [7] of 6.9 h. Moreover, the IC50 in the data set on Cartilage tissue turned out to be 0.04 µM; against Collagenase 3 [12], 7.2 µM; against Collagenase 3 [14], 0.00084 µM. In addition, in [13], the fraction unbound is below 0.01.
